Assays:
Type in all cases: binding
[1] = molecular target: T1, KRAS G12S (Homo sapiens, UniProt P01116, G12S); assay: HTRF assay of K-Ras G12S interaction with SOS1 (PPI-HTRF); conditions: 5 nM KRAS G12S, read-out: PPI-HTRF-5 nM KRAS G12S
T1 construct: made in house; host or cells: E. coli, e.g. BL21 (DE3)
How it was run: (§1)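 Read-out: HTRF ratio 665/620 nm (ex 337 nm) after ~10 min or longer. Donor anti-GST-Eu(K) on GST-K-Ras and acceptor anti-6His-XL665 on His-hSOS1, in HEPES pH 7.4 buffer with DTT, BSA and Igepal. Duplicate dilution series from 10 μM down to 0.01 μM gave IC50 values.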

[2] = molecular target: T2, KRAS G12D (Homo sapiens, UniProt P01116, G12D); assay: HTRF assay of K-Ras G12D interaction with SOS1 (PPI-HTRF); conditions: HTRF, 5 nM KRAS G12D; read-out: PPI-HTRF-5 nM KRAS G12D
T2 construct: made in house; host or cells: E. coli, e.g. BL21 (DE3)
How it was run: as §1

[3] = molecular target: T3, KRAS WT (Homo sapiens, UniProt P01116); assay: HTRF assay of wildtype K-Ras interaction with SOS1 (PPI-HTRF); conditions: HTRF, 5 nM KRAS WT; read-out: PPI-HTRF-5 nM KRAS WT
T3 construct: made in house; host or cells: E. coli, e.g. BL21 (DE3)
How it was run: as §1

Measured: IC50

T3 sequence (P01116 1-188 isoform P01116-2): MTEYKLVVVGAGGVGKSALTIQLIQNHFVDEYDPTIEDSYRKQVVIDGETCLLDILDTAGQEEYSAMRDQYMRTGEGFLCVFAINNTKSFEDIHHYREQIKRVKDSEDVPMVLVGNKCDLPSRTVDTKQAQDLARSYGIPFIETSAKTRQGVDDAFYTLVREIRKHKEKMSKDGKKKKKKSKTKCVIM
T1 sequence (P01116 1-188 isoform P01116-2 G12S): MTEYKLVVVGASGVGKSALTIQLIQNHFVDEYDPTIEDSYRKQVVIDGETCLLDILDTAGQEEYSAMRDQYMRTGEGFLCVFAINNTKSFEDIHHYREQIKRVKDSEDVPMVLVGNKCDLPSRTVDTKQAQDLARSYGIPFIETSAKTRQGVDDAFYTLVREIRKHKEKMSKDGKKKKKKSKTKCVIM
T2 sequence (P01116 1-188 isoform P01116-2 G12D): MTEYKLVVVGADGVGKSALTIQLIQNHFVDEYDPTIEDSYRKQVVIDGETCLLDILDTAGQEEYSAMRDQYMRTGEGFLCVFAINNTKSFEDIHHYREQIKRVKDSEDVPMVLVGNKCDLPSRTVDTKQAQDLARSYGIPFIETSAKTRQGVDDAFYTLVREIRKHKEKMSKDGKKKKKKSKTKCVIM

C[C@H](Oc1nc(N2CC[C@@]3(CCN3C(=O)C3CC3(F)F)C2)c2cc(Cl)c(-c3ccc(F)c4sc(N)c(C#N)c34)c(F)c2n1)[C@@H]1CCCN1C (stereo partly drawn) [Compound 346, (4S)-2-amino-4-(6-chloro-4-((4R)-1-(2,2-difluorocyclopropane-1-carbonyl)-1,6-diazaspiro[3.4]octan-6-yl)-8-fluoro-2-((S)-1-((S)-1-methylpyrrolidin-2-yl)ethoxy)quinazolin-7-yl)-7-fluorobenzo[b]thiophene-3-carbonitrile]
< 5 µM: all assays above

N#Cc1c(N)sc2c(F)ccc(-c3c(Cl)cc4c(N5CCC6(CCN6C(=O)n6ccnn6)C5)nc(OC[C@@]56CCCN5C[C@H](F)C6)nc4c3F)c12 (stereo partly drawn) [Compound 248, 4-(4-(1-(1H-1,2,3-triazole-1-carbonyl)-1,6-diazaspiro[3.4]octan-6-yl)-6-chloro-8-fluoro-2-(((2R,7aS)-2-fluorotetrahydro-1H-pyrrolizin-7a(5H)-yl)methoxy)quinazolin-7-yl)-2-amino-7-fluorobenzo[b]thiophene-3-carbonitrile]
< 5 µM: all assays above

N#Cc1c(N)sc2c(F)ccc(-c3c(Cl)cc4c(N5CCC6(CCCN6C(=O)n6cncn6)C5)nc(OC[C@@]56CCCN5C[C@H](F)C6)nc4c3F)c12 (stereo partly drawn) [Compound 261, 4-(4-(1-(1H-1,2,4-triazole-1-carbonyl)-1,7-diazaspiro[4.4]nonan-7-yl)-6-chloro-8-fluoro-2-(((2R,7aS)-2-fluorotetrahydro-1H-pyrrolizin-7a(5H)-yl)methoxy)quinazolin-7-yl)-2-amino-7-fluorobenzo[b]thiophene-3-carbonitrile]
< 5 µM: all assays above

N#Cc1c(N)sc2c(F)ccc(-c3c(Cl)cc4c(N5CCC6(CCN6C(=O)n6cncn6)C5)nc(OC[C@@]56CCCN5C[C@H](F)C6)nc4c3F)c12 (stereo partly drawn) [Compound 221, (4R)-4-(4-(1-(1H-1,2,4-triazole-1-carbonyl)-1,6-diazaspiro[3.4]octan-6-yl)-6-chloro-8-fluoro-2-(((2R,7aS)-2-fluorotetrahydro-1H-pyrrolizin-7a(5H)-yl)methoxy)quinazolin-7-yl)-2-amino-7-fluorobenzo[b]thiophene-3-carbonitrile]
< 5 µM: all assays above

N#Cc1cn(C(=O)N2CCC23CCN(c2nc(OC[C@@]45CCCN4C[C@H](F)C5)nc4c(F)c(-c5ccc(F)c6sc(N)c(C#N)c56)c(Cl)cc24)C3)cn1 (stereo partly drawn) [Compound 310, 1-(6-(7-(2-amino-3-cyano-7-fluorobenzo[b]thiophen-4-yl)-6-chloro-8-fluoro-2-(((2R,7aS)-2-fluorotetrahydro-1H-pyrrolizin-7a(5H)-yl)methoxy)quinazolin-4-yl)-1,6-diazaspiro[3.4]octane-1-carbonyl)-1H-imidazole-4-carbonitrile]
< 5 µM: all assays above

N#Cc1c(N)sc2c(F)ccc(-c3c(Cl)cc4c(N5CCC6(C5)NCC6(F)F)nc(OC[C@@]56CCCN5C[C@H](F)C6)nc4c3F)c12 (stereo partly drawn) [Compound 232, 2-amino-4-(6-chloro-4-(3,3-difluoro-1,6-diazaspiro[3.4]octan-6-yl)-8-fluoro-2-(((2R,7aS)-2-fluorotetrahydro-1H-pyrrolizin-7a(5H)-yl)methoxy)quinazolin-7-yl)-7-fluorobenzo[b]thiophene-3-carbonitrile]
< 5 µM: all assays above

N#Cc1c(N)sc2c(F)ccc(-c3c(Cl)cc4c(N5CCCC6(CCN6C(=O)n6cncn6)C5)nc(OC[C@@]56CCCN5C[C@H](F)C6)nc4c3F)c12 (stereo partly drawn) [Compound 275, 4-(4-(1-(1H-1,2,4-triazole-1-carbonyl)-1,6-diazaspiro[3.5]nonan-6-yl)-6-chloro-8-fluoro-2-(((2R,7aS)-2-fluorotetrahydro-1H-pyrrolizin-7a(5H)-yl)methoxy)quinazolin-7-yl)-2-amino-7-fluorobenzo[b]thiophene-3-carbonitrile]
< 5 µM: all assays above

N#Cc1c(N)sc2c(F)ccc(-c3c(Cl)cc4c(N5CCC6(COCCN6C(=O)C6CC6(F)F)C5)nc(OC[C@@]56CCCN5C[C@H](F)C6)nc4c3F)c12 (stereo partly drawn) [Compound 258, 2-amino-4-(6-chloro-4-(6-(2,2-difluorocyclopropane-1-carbonyl)-9-oxa-2,6-diazaspiro[4.5]decan-2-yl)-8-fluoro-2-(((2R,7aS)-2-fluorotetrahydro-1H-pyrrolizin-7a(5H)-yl)methoxy)quinazolin-7-yl)-7-fluorobenzo[b]thiophene-3-carbonitrile]
< 5 µM: all assays above

N#Cc1c(N)sc2c(F)ccc(-c3c(Cl)cc4c(N5CCC6(CCN6C(=O)n6cnc(C(F)(F)F)n6)C5)nc(OC[C@@]56CCCN5C[C@H](F)C6)nc4c3F)c12 (stereo partly drawn) [Compound 292, 2-amino-4-(6-chloro-8-fluoro-2-(((2R,7aS)-2-fluorotetrahydro-1H-pyrrolizin-7a(5H)-yl)methoxy)-4-(1-(3-(trifluoromethyl)-1H-1,2,4-triazole-1-carbonyl)-1,6-diazaspiro[3.4]octan-6-yl)quinazolin-7-yl)-7-fluorobenzo[b]thiophene-3-carbonitrile]
< 5 µM: all assays above

C[C@H]1N(c2nc(OC[C@@]34CCCN3C[C@H](F)C4)nc3c(F)c(-c4ccc(F)c5sc(N)c(C#N)c45)c(Cl)cc23)CC[C@@]12CCN2C(=O)n1cnc(C(F)F)n1 [Compound 325, 2-amino-4-(6-chloro-4-((4R,5R)-1-(3-(difluoromethyl)-1H-1,2,4-triazole-1-carbonyl)-5-methyl-1,6-diazaspiro[3.4]octan-6-yl)-8-fluoro-2-(((2R,7aS)-2-fluorotetrahydro-1H-pyrrolizin-7a(5H)-yl)methoxy)quinazolin-7-yl)-7-fluorobenzo[b]thiophene-3-carbonitrile]
< 5 µM: all assays above

C[C@H](Oc1nc(N2CCC3(CCN3C(=O)[C@@H]3C[C@H]3F)C2)c2cc(Cl)c(-c3ccc(F)c4sc(N)c(C#N)c34)c(F)c2n1)[C@@H]1CCCN1C (stereo partly drawn) [Compound 271, 2-amino-4-(6-chloro-8-fluoro-4-(1-((1S,2R)-2-fluorocyclopropane-1-carbonyl)-1,6-diazaspiro[3.4]octan-6-yl)-2-((S)-1-((S)-1-methylpyrrolidin-2-yl)ethoxy)quinazolin-7-yl)-7-fluorobenzo[b]thiophene-3-carbonitrile]
< 5 µM: all assays above

N#Cc1c(N)sc2c(F)ccc(-c3c(Cl)cc4c(N5CC[C@@]6(CCN6)C5)nc(OC[C@@]56CCCN5C[C@H](F)C6)nc4c3F)c12 [Compound 331, 2-amino-4-(6-chloro-8-fluoro-2-(((2R,7aS)-2-fluorotetrahydro-1H-pyrrolizin-7a(5H)-yl)methoxy)-4-((S)-1,6-diazaspiro[3.4]octan-6-yl)quinazolin-7-yl)-7-fluorobenzo[b]thiophene-3-carbonitrile]
< 5 µM: all assays above

Cc1nc(C)n(C(=O)N2CCC23CCN(c2nc(OC[C@@]45CCCN4C[C@H](F)C5)nc4c(F)c(-c5ccc(F)c6sc(N)c(C#N)c56)c(Cl)cc24)C3)n1 (stereo partly drawn) [Compound 226, 2-amino-4-(6-chloro-4-(1-(3,5-dimethyl-1H-1,2,4-triazole-1-carbonyl)-1,6-diazaspiro[3.4]octan-6-yl)-8-fluoro-2-(((2R,7aS)-2-fluorotetrahydro-1H-pyrrolizin-7a(5H)-yl)methoxy)quinazolin-7-yl)-7-fluorobenzo[b]thiophene-3-carbonitrile]
< 5 µM: all assays above

Cc1nc(C(C)C)nn1C(=O)N1CCOCC12CCN(c1nc(OC[C@@]34CCCN3C[C@H](F)C4)nc3c(F)c(-c4ccc(F)c5sc(N)c(C#N)c45)c(Cl)cc13)C2 (stereo partly drawn) [Compound 337, 2-Amino-4-(6-chloro-8-fluoro-2-(((2R,7aS)-2-fluorotetrahydro-1H-pyrrolizin-7a(5H)-yl)methoxy)-4-(6-(3-isopropyl-5-methyl-1H-1,2,4-triazole-1-carbonyl)-9-oxa-2,6-diazaspiro[4.5]decan-2-yl)quinazolin-7-yl)-7-fluorobenzo[b]thiophene-3-carbonitrile]
< 5 µM: all assays above

N#Cc1c(N)sc2c(F)ccc(-c3c(Cl)cc4c(N5CCC6(CCN6C(=O)[C@@H]6N[C@H]6C6CC6)C5)nc(OC[C@@]56CCCN5C[C@H](F)C6)nc4c3F)c12 (stereo partly drawn) [Compound 296, 2-amino-4-(6-chloro-4-(1-((2R,3S)-3-cyclopropylaziridine-2-carbonyl)-1,6-diazaspiro[3.4]octan-6-yl)-8-fluoro-2-(((2R,7aS)-2-fluorotetrahydro-1H-pyrrolizin-7a(5H)-yl)methoxy)quinazolin-7-yl)-7-fluorobenzo[b]thiophene-3-carbonitrile]
< 5 µM: all assays above

N#Cc1c(N)sc2c(F)ccc(-c3c(Cl)cc4c(N5CCC6(CCN6C(=O)n6cnc(C(F)F)n6)C5)nc(OC[C@@]56CCCN5C[C@H](F)C6)nc4c3F)c12 (stereo partly drawn) [Compound 215, 2-amino-4-(6-chloro-4-(1-(3-(difluoromethyl)-1H-1,2,4-triazole-1-carbonyl)-1,6-diazaspiro[3.4]octan-6-yl)-8-fluoro-2-(((2R,7aS)-2-fluorotetrahydro-1H-pyrrolizin-7a(5H)-yl)methoxy)quinazolin-7-yl)-7-fluorobenzo[b]thiophene-3-carbonitrile]
< 5 µM: all assays above

From patent US20240116951A1, “HETEROCYCLIC COMPOUNDS AND USES THEREOF” (Kumquat Biosciences Inc., priority 2022, published 2024)
